Reference: patent US20230212202A1, “TREATMENT OF MGMT DEFICIENT CANCER WITH 2-FLUOROETHYL-SUBSTITUTED NITROSOUREAS AND OTHER COMPOUNDS” (YALE UNIVERSITY, priority 2021, published 2023)

Experiments:
[1] = Maximum tolerated dose study in healthy mice; type: in vivo, mouse
Experimental: Healthy mice were treated with escalating doses of KL-50 (4a) (0, 25, 50, 100, and 200 mg/kg × 1 dose), and monitored over time for changes in both weights and hematologic profiles. Mice in the higher dosage groups (100 or 200 mg/kg) experienced a greater than 10% weight loss after treatment administration, which regressed to baseline at the end of one week (FIG. 6B). […] As the main dose limiting systemic toxicity of TMZ (1a) is myelosuppression, complete blood counts were measured for all mice on day 0 before treatment and subsequently on day 7 after drug administration.

[2] = system: LN229 MGMT-/MMR+ flank tumors
[3] = system: γH2AX, 53BP1 and pRPA foci in LN229 MGMT+/-, MMR+/- cells; assay: Immunofluorescence foci assays; type: cell-based, human; conditions: 20 µM
Experimental: Immunofluorescence Foci Assays. High-throughput immunofluorescence foci assays were performed at the Yale Center for Molecular Discovery (YCMD). Cells were seeded at 2000 cells/well in black polystyrene flat bottom 384-well plates (Greiner Bio-One) and allowed to adhere overnight. Compound addition was performed utilizing a Labcyte Echo 550 liquid handler (Beckman Coulter), with 6 replicates per test condition and 12 replicates per control condition. Following drug incubation, cells were fixed and stained for phospho-SER139-H2AX (yH2AX), 53BP1, or phospho-SER33-RPA2 (pRPA) as follows.
γH2AX protocol: Cells were fixed with 4% paraformaldehyde in 1X PBS for 15 min, washed twice with 1X PBS, incubated in extraction buffer (0.5% Triton X-100 in 1X PBS) for 10 min, washed twice with 1X PBS, and incubated in blocking buffer (Blocker Casein in PBS, Thermo Scientific + 5% goat serum, Life Technologies) for 1 h. Mouse anti-phospho-histone H2A.X (Ser139) antibody (clone JBW301, Millipore, 05-636) was added 1/1000 in blocking buffer at 4° C. overnight. After washing with 1X PBS, cells were incubated with goat anti-mouse IgG (H+L) highly cross-adsorbed secondary antibody, Alexa Fluor 647 (Invitrogen, A-21236) 1/500 and with 1 µg/mL Hoechst nucleic acid dye in blocking buffer for 2 h, and then washed with 1X PBS. […]

[4] = system: LN229 MGMT-/MMR+ and MGMT-/MSH6- flank tumors; assay: Flank tumor third study: large tumors; type: in vivo, mouse; conditions: 25 mg/kg PO MWF × 3 weeks, ~350-400 mm^3 tumors
Experimental: The third study involved MGMT-/MMR+ and MGMT-/MSH6- (shMSH6) LN229 cells. Mice tumors were allowed to grow to a larger average starting volume of ~350 mm^3 before they were randomized and administered either KL-50 (4a; 25 mg/kg MWF × 3 weeks) or vehicle (10% cyclodextrin) by oral gavage. Caliper measurements were obtained during the dosing period and at least two weeks following treatment. Mice were euthanized if body weight loss exceeded 20% or if tumor volume increased to greater than 3000 mm^3.

[5] = system: WT and XPA-deficient MEFs; assay: Short-term cell viability assay in NER isogenic MEFs; type: cell-based, mouse; conditions: ±MGMT depletion with O6BG
Source text: Short-term Cell Viability Assay.

With `NC(=O)c1ncn2c(=O)n(CCF)nnc12` [KL-50] as the compound, how does the tolerability ([1]; 0, 25, 50, 100, 200 mg/kg × 1 dose) read?
Its tolerability is “well-tolerated”.

What about the “mice observably ill warranting euthanasia” value ([1]; 200 mg/kg) of the same compound?
The value was “Two of three mice”.

What about the “weight loss after treatment administration” value ([1]; 100 or 200 mg/kg, regressed to baseline at one week) of the same compound?
Its value is “greater than 10%”.

What about the complete blood counts ([1]; day 7, all cohorts) of the same compound?
The complete blood counts was “within normal physiological ranges”.

What about the tumor growth ([2]; 5 mg/kg MWF × 3 weeks, P.O.) of the same compound?
The tumor growth was “statistically non-inferior to TMZ (1a)”.

What about the body weight ([2]; LN229 flank tumor experiments, compared to TMZ or control) of the same compound?
Its body weight is “no significant changes in body weight”.

And the “γH2AX, 53BP1, pRPA foci formation” value ([3]; 2 to 48 h)?
Its value is “maximal foci response at 48 h, specifically in MGMT- cells and irrespective of MMR status”.

And the “DDR foci across cell cycle phases” value ([3]; 48 h)?
Its value is “foci formation primarily in the S- and G2-phases”.

And the “growth of large tumors” value [4]?
The value was “potently suppressed the growth”.

And the “sensitivity of XPA deficient cells” value [5]?
Its value is “absence of additional sensitivity”.
